Measured values taken from the kinase profiling compilation of Christmann-Franck et al. (2016).

Experiments:
Assay in all cases: radiometric filter-binding kinase assay
HIPK2 (human) = HIPK2 (human) (UniProt Q9H2X6); conditions: compound 10.0 µM
HIPK1 (human) = HIPK1 (human) (UniProt Q86Z02)
GCK (human) = GCK (human) (UniProt Q12851)
CHEK1 (human) = CHEK1 (human) (UniProt O14757)
TTK (human) = TTK (human) (UniProt P33981)
PRKCZ (human) = PRKCZ (human) (UniProt Q05513)
FLT1 (human) = FLT1 (human) (UniProt P17948)
[1] = test system: AKT2 (human), P31751 [S474D]
MELK (human) = MELK (human) (UniProt Q14680)
TAOK1 (human) = TAOK1 (human) (UniProt Q7L7X3)
EEF2K (human) = EEF2K (human) (UniProt O00418)
EPHB1 (human) = EPHB1 (human) (UniProt P54762)
Sequence of EPHB1 (human) (P54762 whole entry, looked up): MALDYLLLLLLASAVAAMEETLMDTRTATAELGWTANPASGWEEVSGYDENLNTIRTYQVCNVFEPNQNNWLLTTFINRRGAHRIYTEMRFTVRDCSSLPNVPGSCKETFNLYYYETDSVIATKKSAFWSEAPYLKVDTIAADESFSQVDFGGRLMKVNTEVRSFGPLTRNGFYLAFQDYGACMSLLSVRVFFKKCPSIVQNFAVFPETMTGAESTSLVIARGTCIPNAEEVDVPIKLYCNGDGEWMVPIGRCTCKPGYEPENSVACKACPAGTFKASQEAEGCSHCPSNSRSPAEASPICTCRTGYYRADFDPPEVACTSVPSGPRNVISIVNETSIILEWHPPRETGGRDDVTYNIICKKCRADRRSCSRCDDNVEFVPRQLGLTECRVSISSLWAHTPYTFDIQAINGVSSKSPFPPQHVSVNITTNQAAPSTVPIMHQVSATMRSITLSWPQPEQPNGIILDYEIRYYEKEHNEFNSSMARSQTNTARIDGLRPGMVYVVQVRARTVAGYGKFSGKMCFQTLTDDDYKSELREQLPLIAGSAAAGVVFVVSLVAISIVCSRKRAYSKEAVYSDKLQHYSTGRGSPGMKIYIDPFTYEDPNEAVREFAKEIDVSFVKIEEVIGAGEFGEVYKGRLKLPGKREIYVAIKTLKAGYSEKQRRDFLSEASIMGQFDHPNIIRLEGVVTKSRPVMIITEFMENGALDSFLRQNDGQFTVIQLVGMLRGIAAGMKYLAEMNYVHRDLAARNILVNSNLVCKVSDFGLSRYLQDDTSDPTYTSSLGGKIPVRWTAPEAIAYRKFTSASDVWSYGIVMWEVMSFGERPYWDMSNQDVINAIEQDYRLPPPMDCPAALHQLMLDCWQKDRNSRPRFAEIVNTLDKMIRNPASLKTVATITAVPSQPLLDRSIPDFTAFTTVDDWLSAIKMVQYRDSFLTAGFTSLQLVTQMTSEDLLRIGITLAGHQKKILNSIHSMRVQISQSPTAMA

AURKA (human) = AURKA (human) (UniProt O14965)
IGF1R (human) = IGF1R (human) (UniProt P08069)
PKN2 (human) = PKN2 (human) (UniProt Q16513)
Sequence of PKN2 (human) (Q16513 whole entry, looked up): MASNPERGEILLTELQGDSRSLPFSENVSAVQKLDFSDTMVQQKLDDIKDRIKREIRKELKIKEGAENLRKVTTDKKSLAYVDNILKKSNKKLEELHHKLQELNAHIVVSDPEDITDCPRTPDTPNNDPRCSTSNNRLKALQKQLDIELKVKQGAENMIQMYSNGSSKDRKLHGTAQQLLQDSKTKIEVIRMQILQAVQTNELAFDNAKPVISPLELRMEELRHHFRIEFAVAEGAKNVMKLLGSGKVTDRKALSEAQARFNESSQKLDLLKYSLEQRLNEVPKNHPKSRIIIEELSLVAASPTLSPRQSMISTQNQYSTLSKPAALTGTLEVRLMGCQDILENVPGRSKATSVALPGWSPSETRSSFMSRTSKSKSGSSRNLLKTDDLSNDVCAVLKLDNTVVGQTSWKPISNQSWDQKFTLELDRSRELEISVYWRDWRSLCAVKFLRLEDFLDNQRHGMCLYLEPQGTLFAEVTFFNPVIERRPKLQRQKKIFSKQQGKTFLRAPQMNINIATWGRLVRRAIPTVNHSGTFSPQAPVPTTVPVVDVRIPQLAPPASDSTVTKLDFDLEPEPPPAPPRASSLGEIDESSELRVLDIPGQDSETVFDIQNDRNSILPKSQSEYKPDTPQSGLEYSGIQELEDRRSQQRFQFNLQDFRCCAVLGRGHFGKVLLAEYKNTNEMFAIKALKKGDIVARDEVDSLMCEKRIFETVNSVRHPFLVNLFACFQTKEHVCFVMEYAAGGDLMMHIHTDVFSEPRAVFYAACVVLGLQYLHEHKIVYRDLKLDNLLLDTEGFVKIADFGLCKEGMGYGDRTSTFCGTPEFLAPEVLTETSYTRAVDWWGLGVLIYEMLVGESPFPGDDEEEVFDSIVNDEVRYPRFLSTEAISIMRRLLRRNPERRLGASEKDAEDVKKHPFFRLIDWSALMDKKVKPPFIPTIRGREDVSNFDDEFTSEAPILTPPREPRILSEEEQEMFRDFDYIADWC

MYLK (human) = MYLK (human) (UniProt Q15746)
MAP3K9 (human) = MAP3K9 (human) (UniProt P80192)
Sequence of MAP3K9 (human) (P80192 whole entry, looked up): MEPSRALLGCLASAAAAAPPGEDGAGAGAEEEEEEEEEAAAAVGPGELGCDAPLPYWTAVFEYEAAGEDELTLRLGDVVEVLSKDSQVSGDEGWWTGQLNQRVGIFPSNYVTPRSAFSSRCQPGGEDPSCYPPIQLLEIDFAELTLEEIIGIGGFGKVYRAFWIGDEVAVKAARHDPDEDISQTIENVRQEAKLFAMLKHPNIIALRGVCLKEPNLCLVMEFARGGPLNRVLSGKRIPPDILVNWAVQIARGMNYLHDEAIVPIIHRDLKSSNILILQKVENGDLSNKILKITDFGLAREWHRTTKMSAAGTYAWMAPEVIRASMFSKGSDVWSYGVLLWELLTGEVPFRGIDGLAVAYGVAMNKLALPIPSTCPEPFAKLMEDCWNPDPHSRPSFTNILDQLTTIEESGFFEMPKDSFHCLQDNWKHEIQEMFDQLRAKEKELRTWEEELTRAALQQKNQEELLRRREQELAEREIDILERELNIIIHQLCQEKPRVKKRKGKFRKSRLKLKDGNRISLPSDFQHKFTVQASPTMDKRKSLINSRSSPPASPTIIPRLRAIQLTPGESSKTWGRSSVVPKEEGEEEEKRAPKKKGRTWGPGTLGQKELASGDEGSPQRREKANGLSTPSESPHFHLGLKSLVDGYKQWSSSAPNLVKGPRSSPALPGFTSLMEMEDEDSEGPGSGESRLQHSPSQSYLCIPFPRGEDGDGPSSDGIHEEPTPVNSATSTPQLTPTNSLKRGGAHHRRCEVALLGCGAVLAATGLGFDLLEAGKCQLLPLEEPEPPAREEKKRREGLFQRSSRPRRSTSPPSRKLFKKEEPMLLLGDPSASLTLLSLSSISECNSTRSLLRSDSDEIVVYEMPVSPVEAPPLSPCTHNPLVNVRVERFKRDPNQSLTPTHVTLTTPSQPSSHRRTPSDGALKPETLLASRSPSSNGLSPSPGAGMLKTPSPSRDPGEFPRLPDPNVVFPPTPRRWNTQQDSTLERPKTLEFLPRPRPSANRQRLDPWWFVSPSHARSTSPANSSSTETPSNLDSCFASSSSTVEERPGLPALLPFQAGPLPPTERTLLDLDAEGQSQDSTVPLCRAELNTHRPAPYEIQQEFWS

MAPK10 (human) = MAPK10 (human) (UniProt P53779)
Sequence of MAPK10 (human) (P53779 whole entry, looked up): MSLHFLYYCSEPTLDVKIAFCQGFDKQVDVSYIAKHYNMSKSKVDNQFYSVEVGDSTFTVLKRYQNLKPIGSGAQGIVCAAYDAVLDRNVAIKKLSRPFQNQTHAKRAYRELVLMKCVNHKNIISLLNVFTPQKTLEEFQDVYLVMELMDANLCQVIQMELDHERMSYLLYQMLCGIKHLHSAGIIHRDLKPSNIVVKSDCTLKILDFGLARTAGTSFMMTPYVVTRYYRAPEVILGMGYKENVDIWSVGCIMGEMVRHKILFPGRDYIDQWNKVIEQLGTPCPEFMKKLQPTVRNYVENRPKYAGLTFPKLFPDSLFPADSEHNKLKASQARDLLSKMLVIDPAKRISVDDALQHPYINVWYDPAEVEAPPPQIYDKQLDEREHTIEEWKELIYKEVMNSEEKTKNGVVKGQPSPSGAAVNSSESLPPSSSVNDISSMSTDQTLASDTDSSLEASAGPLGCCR

MAP3K1 (human) = MAP3K1 (human) (UniProt Q13233)
MAP3K5 (human) = MAP3K5 (human) (UniProt Q99683)
PAK6 (human) = PAK6 (human) (UniProt Q9NQU5)
MAPK13 (human) = MAPK13 (human) (UniProt O15264)
Sequence of MAPK13 (human) (O15264 whole entry, looked up): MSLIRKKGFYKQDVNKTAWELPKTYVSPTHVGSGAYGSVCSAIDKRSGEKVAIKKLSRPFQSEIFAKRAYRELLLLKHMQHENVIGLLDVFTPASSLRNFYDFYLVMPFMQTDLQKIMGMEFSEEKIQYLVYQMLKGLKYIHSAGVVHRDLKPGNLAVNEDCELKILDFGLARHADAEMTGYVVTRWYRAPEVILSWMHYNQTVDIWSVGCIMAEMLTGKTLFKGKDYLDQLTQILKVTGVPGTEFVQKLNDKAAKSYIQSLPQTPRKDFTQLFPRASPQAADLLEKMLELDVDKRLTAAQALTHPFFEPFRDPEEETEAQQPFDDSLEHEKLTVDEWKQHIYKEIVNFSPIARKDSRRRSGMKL

MAP2K2 (human) = MAP2K2 (human) (UniProt P36507)
MAPK9 (human) = MAPK9 (human) (UniProt P45984)
CSNK1D (human) = CSNK1D (human) (UniProt P48730)
FGFR1 (human) = FGFR1 (human) (UniProt P11362)
MARK4 (human) = MARK4 (human) (UniProt Q96L34)
[2] = molecular target: STK11 CAB39 STRADA (human) (UniProt Q9Y376+Q7RTN6+Q15831)
YES1 (human) = YES1 (human) (UniProt P07947)
GSK3B (human) = GSK3B (human) (UniProt P49841)
EPHB4 (human) = EPHB4 (human) (UniProt P54760)
[3] = test system: PAK2 (human), Q13177 [T402E]
MAPK1 (human) = MAPK1 (human) (UniProt P28482)
SYK (human) = SYK (human) (UniProt P43405)
AURKB (human) = AURKB (human) (UniProt Q96GD4)

Sequence of TTK (human) (P33981 whole entry, looked up): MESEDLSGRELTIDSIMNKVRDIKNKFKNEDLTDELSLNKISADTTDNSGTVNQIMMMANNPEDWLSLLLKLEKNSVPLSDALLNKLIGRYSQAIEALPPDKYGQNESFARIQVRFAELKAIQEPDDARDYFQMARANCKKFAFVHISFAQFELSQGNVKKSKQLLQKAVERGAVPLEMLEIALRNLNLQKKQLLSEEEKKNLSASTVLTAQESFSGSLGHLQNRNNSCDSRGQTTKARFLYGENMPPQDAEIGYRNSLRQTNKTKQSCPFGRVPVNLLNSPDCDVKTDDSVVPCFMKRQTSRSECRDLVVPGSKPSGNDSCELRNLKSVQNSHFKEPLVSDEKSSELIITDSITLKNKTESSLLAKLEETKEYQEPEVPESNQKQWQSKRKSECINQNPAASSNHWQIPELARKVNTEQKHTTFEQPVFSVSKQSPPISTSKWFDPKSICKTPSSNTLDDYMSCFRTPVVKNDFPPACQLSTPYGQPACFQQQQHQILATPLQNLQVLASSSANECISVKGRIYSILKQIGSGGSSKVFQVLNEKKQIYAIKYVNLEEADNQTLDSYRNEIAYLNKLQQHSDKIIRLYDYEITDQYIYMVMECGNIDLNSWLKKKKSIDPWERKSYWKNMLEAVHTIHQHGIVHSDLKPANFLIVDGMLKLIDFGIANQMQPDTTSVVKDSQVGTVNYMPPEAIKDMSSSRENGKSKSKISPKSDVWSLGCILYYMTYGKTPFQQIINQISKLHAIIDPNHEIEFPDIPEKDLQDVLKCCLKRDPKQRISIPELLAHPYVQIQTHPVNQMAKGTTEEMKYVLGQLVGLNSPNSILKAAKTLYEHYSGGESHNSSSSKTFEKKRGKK

C=CC(=O)N1CCC[C@@H](n2nc(-c3ccc(Oc4ccccc4)cc3)c3c(N)ncnc32)C1
residual activity (HIPK2 (human)): 66%
residual activity (HIPK1 (human); compound 0.1 µM): 75%
residual activity (HIPK1 (human); compound 1.0 µM): 87%
residual activity (HIPK1 (human); compound 10.0 µM): 75%
residual activity (GCK (human); compound 0.1 µM): 98%
residual activity (GCK (human); compound 1.0 µM): 77%
residual activity (GCK (human); compound 10.0 µM): 38%
residual activity (CHEK1 (human); compound 0.1 µM): 76%
residual activity (CHEK1 (human); compound 1.0 µM): 93%
residual activity (CHEK1 (human); compound 10.0 µM): 77%
residual activity (TTK (human); compound 0.1 µM): 95%
residual activity (TTK (human); compound 1.0 µM): 101%
residual activity (TTK (human); compound 10.0 µM): 82%
residual activity (PRKCZ (human); compound 0.1 µM): 90%
residual activity (PRKCZ (human); compound 1.0 µM): 98%
residual activity (PRKCZ (human); compound 10.0 µM): 81%
residual activity (FLT1 (human); compound 0.1 µM): 40%
residual activity (FLT1 (human); compound 1.0 µM): 7%
residual activity (FLT1 (human); compound 10.0 µM): 2%
residual activity ([1]; compound 0.1 µM): 80%
residual activity ([1]; compound 1.0 µM): 93%
residual activity ([1]; compound 10.0 µM): 71%
residual activity (MELK (human); compound 0.1 µM): 69%
residual activity (MELK (human); compound 10.0 µM): 56%
residual activity (TAOK1 (human); compound 0.1 µM): 113%
residual activity (TAOK1 (human); compound 1.0 µM): 119%
residual activity (EEF2K (human); compound 0.1 µM): 88%
residual activity (EEF2K (human); compound 10.0 µM): 90%
residual activity (EPHB1 (human); compound 0.1 µM): 72%
residual activity (EPHB1 (human); compound 1.0 µM): 90%
residual activity (EPHB1 (human); compound 10.0 µM): 86%
residual activity (AURKA (human); compound 0.1 µM): 92%
residual activity (AURKA (human); compound 1.0 µM): 57%
residual activity (AURKA (human); compound 10.0 µM): 10%
residual activity (IGF1R (human); compound 0.1 µM): 95%
residual activity (IGF1R (human); compound 1.0 µM): 93%
residual activity (IGF1R (human); compound 10.0 µM): 63%
residual activity (PKN2 (human); compound 0.1 µM): 109%
residual activity (PKN2 (human); compound 1.0 µM): 100%
residual activity (PKN2 (human); compound 10.0 µM): 90%
residual activity (MYLK (human); compound 0.1 µM): 79%
residual activity (MYLK (human); compound 1.0 µM): 90%
residual activity (MYLK (human); compound 10.0 µM): 44%
residual activity (MAP3K9 (human); compound 0.1 µM): 104%
residual activity (MAP3K9 (human); compound 1.0 µM): 89%
residual activity (MAP3K9 (human); compound 10.0 µM): 27%
residual activity (MAPK10 (human); compound 0.1 µM): 84%
residual activity (MAPK10 (human); compound 1.0 µM): 96%
residual activity (MAPK10 (human); compound 10.0 µM): 86%
residual activity (MAP3K1 (human); compound 0.1 µM): 106%
residual activity (MAP3K1 (human); compound 1.0 µM): 103%
residual activity (MAP3K1 (human); compound 10.0 µM): 56%
residual activity (MAP3K5 (human); compound 0.1 µM): 103%
residual activity (MAP3K5 (human); compound 1.0 µM): 128%
residual activity (MAP3K5 (human); compound 10.0 µM): 111%
residual activity (PAK6 (human); compound 0.1 µM): 95%
residual activity (PAK6 (human); compound 1.0 µM): 97%
residual activity (PAK6 (human); compound 10.0 µM): 82%
residual activity (MAPK13 (human); compound 0.1 µM): 88%
residual activity (MAPK13 (human); compound 1.0 µM): 104%
residual activity (MAPK13 (human); compound 10.0 µM): 80%
residual activity (MAP2K2 (human); compound 0.1 µM): 94%
residual activity (MAP2K2 (human); compound 1.0 µM): 94%
residual activity (MAP2K2 (human); compound 10.0 µM): 63%
residual activity (MAPK9 (human); compound 0.1 µM): 89%
residual activity (MAPK9 (human); compound 1.0 µM): 101%
residual activity (CSNK1D (human); compound 0.1 µM): 98%
residual activity (CSNK1D (human); compound 1.0 µM): 111%
residual activity (CSNK1D (human); compound 10.0 µM): 115%
residual activity (FGFR1 (human); compound 0.1 µM): 52%
residual activity (FGFR1 (human); compound 1.0 µM): 24%
residual activity (FGFR1 (human); compound 10.0 µM): 15%
residual activity (MARK4 (human); compound 0.1 µM): 111%
residual activity (MARK4 (human); compound 1.0 µM): 114%
residual activity (MARK4 (human); compound 10.0 µM): 80%
residual activity ([2]; compound 0.1 µM): 106%
residual activity ([2]; compound 10.0 µM): 100%
residual activity (YES1 (human); compound 0.1 µM): 20%
residual activity (YES1 (human); compound 1.0 µM): 16%
residual activity (YES1 (human); compound 10.0 µM): 13%
residual activity (GSK3B (human); compound 0.1 µM): 104%
residual activity (GSK3B (human); compound 1.0 µM): 95%
residual activity (GSK3B (human); compound 10.0 µM): 75%
residual activity (EPHB4 (human); compound 0.1 µM): 83%
residual activity (EPHB4 (human); compound 1.0 µM): 74%
residual activity (EPHB4 (human); compound 10.0 µM): 39%
residual activity ([3]; compound 0.1 µM): 87%
residual activity ([3]; compound 1.0 µM): 72%
residual activity ([3]; compound 10.0 µM): 55%
residual activity (MAPK1 (human); compound 0.1 µM): 94%
residual activity (MAPK1 (human); compound 1.0 µM): 99%
residual activity (MAPK1 (human); compound 10.0 µM): 90%
residual activity (SYK (human); compound 0.1 µM): 90%
residual activity (SYK (human); compound 1.0 µM): 100%
residual activity (SYK (human); compound 10.0 µM): 52%
residual activity (AURKB (human); compound 0.1 µM): 96%
residual activity (AURKB (human); compound 1.0 µM): 61%
residual activity (AURKB (human); compound 10.0 µM): 13%
